Key:
endothelin 1A receptor = target: T1, endothelin 1A receptor (Sus scrofa, UniProt Q29010); conditions: porcine saphenous vein-carotid artery interposition grafts; cited from earlier work
T1 construct: host or cells: in vivo, porcine vein grafts
T1 sequence (Q29010 21-427): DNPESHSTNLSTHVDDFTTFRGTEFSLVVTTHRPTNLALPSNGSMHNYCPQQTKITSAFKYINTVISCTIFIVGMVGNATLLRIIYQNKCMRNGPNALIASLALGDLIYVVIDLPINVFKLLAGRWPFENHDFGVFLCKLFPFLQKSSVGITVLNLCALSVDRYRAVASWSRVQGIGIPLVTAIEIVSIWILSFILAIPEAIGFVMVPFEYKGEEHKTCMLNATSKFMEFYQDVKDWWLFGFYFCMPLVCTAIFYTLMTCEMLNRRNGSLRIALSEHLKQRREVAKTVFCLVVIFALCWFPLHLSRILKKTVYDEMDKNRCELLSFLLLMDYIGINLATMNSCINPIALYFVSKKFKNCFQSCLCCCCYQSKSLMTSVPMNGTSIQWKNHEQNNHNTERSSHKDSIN

[1] = system: healthy adult hound dogs (left circumflex coronary artery, LCx, territory); experiment: Endothelin-induced myocardial perfusion defects by 82Rb PET imaging in dogs; assay type: in vivo, dog; conditions: for severity of perfusion defect after intracoronary infusion: intracoronary into LCx for 10 min, L-NMMA 100-400 μg/kg/min in five dogs vs ET-1; for AD i.c. pre-ET: LCx 82Rb uptake as % of baseline: intracoronary adenosine before ET-1; for AD i.c. post-ET: LCx 82Rb uptake as % of baseline: intracoronary adenosine after ET-1; for AD i.v.: LCx 82Rb uptake as % of baseline: intravenous adenosine 0.142 mg/kg/min after ET-1
Experimental: Experimental Preparation. The experimental protocol was approved by the Animal Welfare Committee of the University of Texas Health Sciences Center at Houston. After an overnight fast, healthy adult hound dogs (n=14) of both sexes, 21-35 kg, were anesthetized with 30 mg/kg pentobarbital sodium (Nembutal) and underwent endotracheal intubation and mechanical ventilation with adequate anesthesia maintained by small supplemental doses during the experiment. Arterial blood gases were maintained within physiological range by adjusting the mechanical ventilator with supplemental oxygen, core body temperature was maintained at 37° C. with a homeothermic blanket, and stable body position was maintained throughout the duration of the imaging protocol by using a specially designed portable cradle for both coronary arteriography and PET imaging without moving the dog strapped to the portable cradle.
Arterial access was obtained via the right femoral artery by standard Seldinger technique with an arterial micropuncture kit (Cook, Bloomington, Ind.) with a 6-F arterial sheath. All animals received 100 IU/kg of initial heparin bolus, with 50 IU/kg every hour for the duration of the experiment. A 6-F standard JL3 VistaBrite coronary guide catheter (Cordis-Cardiology, Miami Lakes, Fla.) was positioned under fluoroscopic guidance into the left main coronary artery ostium.
After a stable position for the guide catheter was obtained, a 0.014-in.-diameter Hi-Torque Whisper guide wire (Guidant, Indianapolis, Ind.) was placed in the left circumflex coronary artery (LCx). Over the coronary wire, a 2.3-F, 150-cm-long, 0.042-in.-minimal diameter Rapidtransit infusion catheter (Cordis-Cardiology) was positioned in the LCx, with the tip in the midsegment of the LCx artery proximal to the takeoff of the first large obtuse marginal branch. The guide wire was removed, the guide catheter was withdrawn into the aortic root, and the small catheter was left in place in the mid-LCx.
Experimental Protocol. Contrast angiograms were obtained to document the LCx as the dominant coronary artery and the small catheter position in the mid-LCx. With contrast solution diluted 50% with normal saline, different injection rates were tested to determine the rate at which back flow occurred into the proximal segment of the coronary artery. […] Dogs were then moved into the PET scanner without changing position on the special cradle, and a repeat subselective angiogram was performed under fluoroscopy on the PET imaging table to ensure that the small intracoronary infusion catheter positioned in the mid-LCx had not changed during transportation. PET imaging was carried out with the University of Texas-designed Posicam BGO multislice tomograph HZL/mPower (Positron, Houston) as previously described (e.g., Halcox et al., Circulation 106:653-658, 2002), with a reconstructed resolution of 10-mm full-width half-maximum. Images were acquired in two-dimensional mode with extended septa to minimize scattered counts with random coincidences corrected from the singles count rate.
On the basis of a 5-min positioning transmission scan, dogs were precisely positioned in the PET scanner and laser guides aligned to external body markers were used to check correct position for every image acquisition. With a rotating rod source containing 4-5 mCi of ^68Ge, transmission images to correct for photon attenuation contained about 70-90 million counts. Emission images obtained after intravenous injection of […]-1,110 MBq (25-30 mCi) of generator-produced rubidium-82 (^82Rb) contained about 20-30 million counts. The protocol used the following imaging sequence as illustrated in FIG. 7.
Step 1. Immediately after completion of a resting perfusion image with intravenous ^82Rb, 3 mg/ml adenosine (Fujisawa Healthcare, Deerfield, Ill.) was infused subselectively into the LCx for 4 min at 2 ml/min. […]

myocardial perfusion = experiment: Rest-dipyridamole myocardial perfusion PET with Markovian homogeneity analysis; assay type: in vivo, human
Excerpt: Study Patients. The population for this study consists of 1,034 consecutive subjects undergoing diagnostic, rest-dipyridamole, myocardial perfusion PET at The Weatherhead PET Center For Preventing and Reversing Atherosclerosis of the University of Texas Medical School—Houston. All subjects signed informed consent approved by the Committee for the Protection of Human Subjects of the University of Texas Health Science Center. A complete medical history was obtained on all patients undergoing diagnostic cardiac PET for assessment or follow-up of known CAD, for second opinions on revascularization procedures, for prior positive stress tests, for coronary calcification by CT, for chest pain or other symptoms, for screening, or for risk factors. A history of risk factors was obtained for age, sex, diabetes, hypertension, high cholesterol, family history of vascular disease, excess weight, lack of exercise, and past or present smoking, that were counted as positive even if treated, as with hypertensive or lipid-lowering medications.
PET. Patients were instructed to fast for 4 h and abstain from caffeine, theophylline, and cigarettes for 24 h before study. PET was performed using the University of Texas designed, Positron Posicam Auricle, bismuth germanate, 2-dimensional (2D) multislice tomograph with a reconstructed resolution of 10-mm full width at half maximum. Using a rotating rod source containing 148-185 MBq (4-5 mCi) of ^68Ge, transmission images to correct for photon attenuation contained approximately 40-60 million counts. Emission images obtained after intravenous injection of 925-1,850 MBq (25-50 mCi) of generator-produced ^82Rb contained 20-50 million counts depending on the age of the generator and size of the patient. After resting ^82Rb data acquisition, dipyridamole (0.142 mg/kg/min) was infused for 4 min. At 4 min after completion of the dipyridamole infusion, the same dose of ^82Rb was given intravenously.
Automated Quantitative Analysis of PET Images. […]

[2] = intracoronary ET-1 1.5-3.5 ng/kg/min for 10 min, repeated doses in six dogs

Cc1cc(C)nc(O[C@H](C(=O)O)C(C)(c2ccccc2)c2ccccc2)n1 [BSF 302146, [+]-[S]-2-[4,6-dimethyl-pyridimin-2-yloxy]-3,3-diphenyl-butanoic acid]
inhibition of neointimal and medial thickening (endothelin 1A receptor): potent inhibitor

CC[C@H](C)[C@H](NC(=O)[C@H](CC(=O)O)NC(=O)[C@H](CC(C)C)NC(=O)[C@H](Cc1cnc[nH]1)NC(=O)[C@@H]1CSSC[C@H](N)C(=O)N[C@@H](CO)C(=O)N[C@H]2CSSC[C@H](NC(=O)[C@H](CCC(=O)O)NC(=O)[C@H](CCCCN)NC(=O)[C@H](CC(=O)O)NC(=O)[C@H](CCSC)NC(=O)[C@H](CC(C)C)NC(=O)[C@H](CO)NC(=O)[C@H](CO)NC2=O)C(=O)N[C@@H](C(C)C)C(=O)N[C@@H](Cc2ccc(O)cc2)C(=O)N[C@@H](Cc2ccccc2)C(=O)N1)C(=O)N[C@H](C(=O)N[C@@H](Cc1c[nH]c2ccccc12)C(=O)O)[C@@H](C)CC [ET-1, endothelin-1]
ΔET − Baseline (severity of ET-induced defect) ([1]; Group 1): −12.7%
ET: LCx 82Rb uptake as % of baseline ([1]; Group 1, after intracoronary ET-1, total dose 44.3 ng): 89.3%
ET: LCx 82Rb uptake as % of baseline ([1]; Group 1, after intracoronary ET-1, total dose 44.3 ng, listed as ET): 89.3 ± 7.3%
ΔET − Baseline (severity of ET-induced defect) ([1]; Group 1, listed as ET): −12.7 ± 6.7%
ΔET − Baseline (severity of ET-induced defect) ([1]; Group 2): −11.1%
ET: LCx 82Rb uptake as % of baseline ([1]; Group 2, after intracoronary ET-1, total dose 67.5 ng): 90.2%
ET: LCx 82Rb uptake as % of baseline ([1]; Group 2, after intracoronary ET-1, total dose 67.5 ng, listed as ET): 90.2 ± 8.1%
ΔET − Baseline (severity of ET-induced defect) ([1]; Group 2, listed as ET): −11.1 ± 11.9%
death because of ET-1 administration [1, 2]: no animal died
tachyarrhythmia [1, 2]: No tachyarrhythmia developed
severity of perfusion defect after intracoronary infusion [1]: −10.13%
duration of perfusion defect after intracoronary ET-1 infusion ([1]; pilot dose-finding, three dogs, in several instances): up to 5 h
time at which perfusion defect was first observed ([1]; pilot dose-finding, end of initial intracoronary ET-1 infusion): ≥ 10 min

CNC(=N)NCCC[C@H](N)C(=O)O [L-NMMA, N^G-monomethyl-L-arginine]
severity of perfusion defect after intracoronary infusion [1]: −2.48%

Nc1ncnc2c1ncn2[C@@H]1O[C@H](CO)[C@@H](O)[C@H]1O [adenosine]
ΔAD i.c − ET (percent change in LCx uptake) ([1]; Group 1): 8.7%
ΔAD i.v. − ET (change of defect after intravenous adenosine) ([1]; Group 1): +4.1%
AD i.c. pre-ET: LCx 82Rb uptake as % of baseline ([1]; Group 1 (n = 8, defect improved after i.v. adenosine)): 102%
AD i.c. pre-ET: LCx 82Rb uptake as % of baseline ([1]; Group 1 (n = 8, defect improved after i.v. adenosine), listed as AD): 102.0 ± 5.5%
AD i.c. post-ET: LCx 82Rb uptake as % of baseline ([1]; Group 1): 98.7%
AD i.c. post-ET: LCx 82Rb uptake as % of baseline ([1]; Group 1, listed as AD): 98.7 ± 5.5%
AD i.v.: LCx 82Rb uptake as % of baseline ([1]; Group 1): 93.4%
AD i.v.: LCx 82Rb uptake as % of baseline ([1]; Group 1, listed as AD): 93.4 ± 6.0%
ΔAD i.c − ET (percent change in LCx uptake) ([1]; Group 1, listed as AD): 8.7 ± 4.3%
ΔAD i.v. − ET (change of defect after intravenous adenosine) ([1]; Group 1, listed as AD): 4.1 ± 2.0%
ΔAD i.c − ET (percent change in LCx uptake) ([1]; Group 2): 10.5%
ΔAD i.v. − ET (change of defect after intravenous adenosine) ([1]; Group 2): −12.5%
AD i.c. pre-ET: LCx 82Rb uptake as % of baseline ([1]; Group 2 (n = 15, defect not improved or worse after i.v. adenosine)): 101.3%
AD i.c. pre-ET: LCx 82Rb uptake as % of baseline ([1]; Group 2 (n = 15, defect not improved or worse after i.v. adenosine), listed as AD): 101.3 ± 5.2%
AD i.c. post-ET: LCx 82Rb uptake as % of baseline ([1]; Group 2): 100.5%
AD i.c. post-ET: LCx 82Rb uptake as % of baseline ([1]; Group 2, listed as AD): 100.5 ± 4.3%
AD i.v.: LCx 82Rb uptake as % of baseline ([1]; Group 2): 77.7%
AD i.v.: LCx 82Rb uptake as % of baseline ([1]; Group 2, listed as AD): 77.7 ± 14.5%
ΔAD i.c − ET (percent change in LCx uptake) ([1]; Group 2, listed as AD): 10.5 ± 8.5%
ΔAD i.v. − ET (change of defect after intravenous adenosine) ([1]; Group 2, listed as AD): −12.5 ± 9.2%
effect of intracoronary adenosine on ET-1-induced resting perfusion defects ([1]; all experiments): normalized
effect of intravenous adenosine on vasoconstrictor effect of ET-1 ([1]; doses comparable to clinical practice, all 23 protocol sequences): only partially counteracted
visual change of ET-1-induced perfusion defect after intravenous adenosine ([1]; group 1 (n=8)): improved
visual change of ET-1-induced perfusion defect after intravenous adenosine ([1]; group 2 (n=15)): visually not improved or relatively worse

OCCN(CCO)c1nc(N2CCCCC2)c2nc(N(CCO)CCO)nc(N3CCCCC3)c2n1 [dipyridamole]
lowest mean average quadrant activity on the dipyridamole scan (myocardial perfusion; patient with severe stress-induced perfusion defect): 63 % of maximum
homogeneity index by Markovian analysis after dipyridamole (myocardial perfusion; patient with severe stress-induced perfusion defect, 0.34 at rest): 0.49
homogeneity index by Markovian analysis after dipyridamole (myocardial perfusion; young healthy volunteer without risk factors, 0.80 at rest): 0.83
